Data taken from article PMC10975527 (Viruses, 2024).
Read-outs that look alike come from different tables or passages of the source.

Tests used:
HBV genotypes A–H = assay: HBV genotype coverage in HBV transfected Huh-7 cells (HBsAg); settings: Hepatitis B virus
[1] = mouse, in vivo
recombinant human PAPD5 = target: T1, recombinant human PAPD5 (Homo sapiens, UniProt Q8NDF8); assay: PAPD5 ATP depletion assay; assay type: biochemical; settings: 12.5 nM enzyme, 750 nM ATP, 3 h, mean of 3 experiments; read-out: IC50, PAPD5-mediated incorporation of ATP
T1 construct: made in house

[2] = Cytotoxicity in HepG2-hNTCP cells; assay type: cell-based; settings: human, HBV-infected HepG2-hNTCP-C4 cells
[3] = Tolerability in AAV-HBV mice; settings: once-daily dosing for 14 days
in vitro [4] = settings: bovine
HSV-1/HSV-2 = assay: Antiviral selectivity panel: HSV-1/HSV-2; assay type: cell-based, herpes simplex virus-1/herpes simplex virus-2; settings: MRC5; MRC-5 (human lung)
in vitro [5] = assay type: in vitro ADME; settings: dog, plasma
HBV [6] = assay: HBV-infected primary human hepatocytes (PHH) antiviral assay; assay type: cell-based; settings: Hepatitis B virus, Hepatocyte, genotype D
HBV pgRNA and preS/S RNA = assay: Kinetics of HBV RNA degradation in HepAD38 cells (Northern blot); assay type: cell-based, hepatitis B virus; settings: HepAD38, GLS4 + AB-161 (100 nM)
HCV = assay: Antiviral selectivity panel: HCV; assay type: cell-based; settings: Hepatitis C virus; Huh-7 (human liver)
in vitro [7] = settings: hamster
[8] = tested on: HBsAg with wildtype HBV PRE; assay: HBV PRE variant phenotyping in Huh-7: wild-type PRE plasmid (HBsAg); assay type: cell-based; settings: Hepatitis B virus, Huh-7, 120 h, read-out: HBsAg EC50
Sprague Dawley rats = assay: 13-week repeat-dose toxicity study in rats; assay type: in vivo
HBV [9] = assay: HBV antiviral assay in HepG2.2.15 cells (HBsAg/HBeAg CLIA, secreted HBV DNA PCR); assay type: cell-based; settings: Hepatitis B virus, HepG2.2.15, genotype D
RSV = assay: Antiviral selectivity panel: RSV; assay type: cell-based; settings: human respiratory syncytial virus, HEp-2; HEp2 (human epithelial)
HCMV = assay: Antiviral selectivity panel: HCMV; assay type: cell-based, human cytomegalovirus; settings: Human betaherpesvirus 5, MRC5; MRC-5 (human lung)
in vitro [10] = settings: monkey
HBV (AAV-HBV) = assay: AAV-HBV mouse model, serum HBsAg; settings: AAV-HBV mice; for mean reduction of serum HBsAg compared to pre-dose baseline: 14 days
[11] = tested on: HBsAg expressed from integrated HBV; assay: HBsAg from integrated HBV in PLC/PRF/5 cells; assay type: cell-based; settings: Hepatitis B virus, PLC-PRF-5, read-out: HBsAg EC50
HBV [12] = assay: HBV life cycle analysis in HepG2.2.15 cells; assay type: cell-based, hepatitis B virus; settings: ETV 1 μM, GLS4 1 μM, AB-161 100 nM
HBV [13] = assay: HBV-infected HepG2-hNTCP antiviral assay; assay type: cell-based; settings: Hepatitis B virus, genotype D
WNV = assay: Antiviral selectivity panel: WNV; assay type: cell-based; settings: West Nile virus, Vero 76, in Primates; Vero76 (monkey kidney)
[14] = read-out: HBV RNA EC50 (converted)
[15] = read-out: HBeAg EC50 (converted)

T1 sequence (Q8NDF8 106-438 limits assumed): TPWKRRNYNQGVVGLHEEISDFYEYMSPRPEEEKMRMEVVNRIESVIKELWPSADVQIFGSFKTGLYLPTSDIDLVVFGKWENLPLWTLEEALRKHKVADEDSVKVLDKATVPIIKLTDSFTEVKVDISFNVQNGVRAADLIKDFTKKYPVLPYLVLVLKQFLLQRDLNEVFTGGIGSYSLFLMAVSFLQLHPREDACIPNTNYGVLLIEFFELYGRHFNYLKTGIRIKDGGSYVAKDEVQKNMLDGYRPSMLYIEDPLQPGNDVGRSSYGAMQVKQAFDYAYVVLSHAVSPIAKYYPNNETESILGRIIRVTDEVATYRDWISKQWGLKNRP

COc1cc(OC(F)F)c2nc3c(n2c1)C[C@@H](C(C)(C)C)c1cc(C(=O)O)c(=O)[nH]c1-3 [AB-161]
EC50 (HBV genotypes A–H; Huh-7, read-out: HBsAg EC50, HBV transfected Huh-7, range over genotypes A–H): 2.1 to 4.5 nM
EC50 (HBV genotypes A–H; Huh-7, read-out: HBsAg EC50, Huh-7, HBV genotype A): 3 ± 0.8 nM
EC50 (HBV genotypes A–H; Huh-7, read-out: HBsAg EC50, Huh-7, HBV genotype B): 2.6 ± 1.4 nM
EC50 (HBV genotypes A–H; Huh-7, read-out: HBsAg EC50, Huh-7, HBV genotype C): 2.3 ± 0.6 nM
EC50 (HBV genotypes A–H; Huh-7, read-out: HBsAg EC50, Huh-7, HBV genotype D): 4.5 ± 2.8 nM
EC50 (HBV genotypes A–H; Huh-7, read-out: HBsAg EC50, Huh-7, HBV genotype E): 2.5 ± 0.9 nM
EC50 (HBV genotypes A–H; Huh-7, read-out: HBsAg EC50, Huh-7, HBV genotype F): 3.3 ± 2.6 nM
EC50 (HBV genotypes A–H; Huh-7, read-out: HBsAg EC50, Huh-7, HBV genotype H-1): 2.4 ± 0.5 nM
EC50 (HBV genotypes A–H; Huh-7, read-out: HBsAg EC50, Huh-7, HBV genotype H-2): 2.1 ± 0.9 nM
liver and kidney function markers (ALT, creatinine) [1]: no significant changes
IC50 (recombinant human PAPD5): 850 nM
CC50 [2]: > 10000 nM
tolerability [3]: well-tolerated
CC50 (in vitro [4]): > 30000 nM
EC50 (HSV-1/HSV-2): > 30000 nM
fraction unbound at 6 h, 500 ng/mL (in vitro [5]): 0.047
EC50 (HBV [6]; [14]): 9.6 nM
EC50 (HBV [6]; [15]): 11.9 nM
EC50 (HBV [6]; read-out: HBsAg EC50): 8.5 ± 4.7 nM
levels of pgRNA and preS/S RNA (HBV pgRNA and preS/S RNA; 8 h and 16 h post-treatment): substantially reduced
migration of pgRNA and preS/S RNA (shortening of the viral transcripts) (HBV pgRNA and preS/S RNA; starting at 2 h post-treatment): faster migration
EC50 (HCV): > 30000 nM
CC50 (in vitro [7]): > 30000 nM
EC50 [8]: 2.5 nM
reproductive safety findings (Sprague Dawley rats; male or female rats, 13-week administration, all doses): no reproductive safety findings
motor nerve conduction (Sprague Dawley rats; rats): No differences from baseline or time-matched controls
sensory nerve conduction velocity (NCV) (Sprague Dawley rats; rats, 500 mg/kg, day 70 and day 119, considered non-adverse): NCV delays were noted
EC50 (HBV [9]; 144 h, 6-day incubation, read-out: HBsAg EC50): 2.3 ± 1 nM
EC50 (HBV [9]; secreted HBV DNA, read-out: HBV DNA EC50 (converted)): 0.36 nM
EC50 (HBV [9]; with 40% human serum, read-out: HBsAg (40% human serum) EC50 (converted)): 63 nM
EC50 (HBV [9]; [15]): 13.7 nM
EC50 (RSV): > 30000 nM
EC50 (HCMV): > 30000 nM
CC50 (in vitro [10]): > 30000 nM
mean reduction of serum HBsAg compared to pre-dose baseline (HBV (AAV-HBV); 0.3 mg/kg oral QD): 0.13 log10
mean reduction of serum HBsAg compared to pre-dose baseline (HBV (AAV-HBV); 1 mg/kg oral QD): 0.34 log10
mean reduction of serum HBsAg compared to pre-dose baseline (HBV (AAV-HBV); 10 mg/kg oral QD): 0.71 log10
mean reduction of serum HBsAg compared to pre-dose baseline (HBV (AAV-HBV); 30 mg/kg oral QD): 0.94 log10
earliest time at which inhibition of serum HBsAg was observed (HBV (AAV-HBV); after initiation of dosing): 4 days
mean maximal reduction of serum HBsAg compared to pre-dose baseline (HBV (AAV-HBV); oral QD 14 days, dose range 0.3 to 30 mg/kg): 0.94 ± 0.56 log10
EC50 [11]: 5.9 ± 2.5 nM
HBV DNA replication (HBV [12]): inhibited
intracellular HBV RNA (pgRNA, preS/S RNA) (HBV [12]): inhibited
viral proteins: HBV core and capsid assembly (HBV [12]): inhibited
EC50 (HBV [13]; [14]): 30.1 nM
EC50 (HBV [13]; [15]): 20.9 nM
EC50 (HBV [13]; read-out: HBsAg EC50): 25.3 ± 10.9 nM
EC50 (WNV): > 30000 nM
